Test results: the NIST ThermoML archive (doi:10.1021/acs.jced.6b00334)
± gives the expanded uncertainty stated by the source.

Tests used:
[1] = Molar enthalpy of transition or fusion; details: Crystal; DSC
[2] = Solid-liquid equilibrium temperature; details: 101 kPa; Crystal; DTA

- Molar enthalpy of transition or fusion [1]: 18.8 ± 5 kJ/mol
- Solid-liquid equilibrium temperature [2]: 384.15 ± 0.25 K
Compound: CCc1ccc2c(c1)C(=O)c1ccccc1C2=O [2-ethyl-9,10-anthracenedione]
